From patent US20240336601A1 (Chulalongkorn University, priority 2020, published 2024)

Columns and labels:
[1] = target: interaction between PD-1 and PD-L1 (Homo sapiens, UniProt Q9NZQ7); test: PD-1/PD-L1 protein-protein interaction assay (ALPHA); type: binding; details: 2 nM His-tagged human PD-L1, 0.6 nM PD-1-Fc, AlphaScreen
Experimental: PD-1′PD-L1 Protein-Protein Interaction Assay
Amplified Luminescent Proximity Homogeneous Assay (ALPHA) platform was used to evaluate the ability of the compounds to block the interaction between PD-1 and PD-L1. The assays were performed in half volume white 96-well plate in a final volume of 40 μl. Compounds at various concentrations were preincubated with 2 nM His tagged recombinant human PD-L1 protein and 0.6 nM recombinant PD-1 protein with Fc-tag (both reagents were purchased from AcroBiosystems) for 40 minutes. After the preincubation, 20 μg/mL of Alphascreen Ni chelate donor beads (PerkinElmer, USA) and Protein A acceptor beads (PerkinElmer, USA) were added into the well and incubated under reduced light at 25° C. for 120 minutes. The signal was measured with the EnSight Multimode Plate Reader. IC50 values were calculated from the four-parameter logistic curve fit.

PD-1/PD-L1 interaction = target: T1, PD-1/PD-L1 interaction (Homo sapiens, UniProt Q9NZQ7); test: PD-1/PD-L1 blockage cell-based bioassay (Jurkat NFAT luciferase / CHO-PDL1 co-culture); details: Jurkat NFAT cells co-cultured with CHO-PDL1 cells, 6 h, luminescence
T1 construct: expressed in transfected cells
T1 sequence (Q9NZQ7 19-290): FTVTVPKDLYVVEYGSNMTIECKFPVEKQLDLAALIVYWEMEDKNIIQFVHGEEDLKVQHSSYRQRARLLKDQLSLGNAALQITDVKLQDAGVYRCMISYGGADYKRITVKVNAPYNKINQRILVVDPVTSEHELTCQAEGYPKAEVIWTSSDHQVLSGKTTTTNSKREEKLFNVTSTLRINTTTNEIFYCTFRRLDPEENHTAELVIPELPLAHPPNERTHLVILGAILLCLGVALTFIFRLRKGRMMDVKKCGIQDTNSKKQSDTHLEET
Experimental: PD-1/PD-L1 Blockage Cell-Based Bioassay
Jurkat T cells expressing human PD-1 and luciferase gene reporter driven by TCR-mediated NFAT response element (Jurkat NFAT) were co-cultured with CHO-kl cells expressing human PD-L1 and surface-bound TCR activator (CHO-PDL1). […] CHO-PDL1 cells (20,000 cells/well) were seeded overnight. Compounds were added on CHO-PDL1 and incubated for 2 h at 37° C. Jurkat NFAT cells (20,000 cells/well) were diluted in RPMI assay medium (RPMI1640 with 1% FBS) and added into each well. After co-incubation for 6 h at 37° C., luminescence was determined by adding Bio-Glo™ Luciferase reagent (Promega) and measured with a luminescence plate reader. EC50 values were calculated from the four-parameter concentration-response curves.

interaction between PD-1 and PD-L1, sequence (Q9NZQ7 19-238 limits assumed): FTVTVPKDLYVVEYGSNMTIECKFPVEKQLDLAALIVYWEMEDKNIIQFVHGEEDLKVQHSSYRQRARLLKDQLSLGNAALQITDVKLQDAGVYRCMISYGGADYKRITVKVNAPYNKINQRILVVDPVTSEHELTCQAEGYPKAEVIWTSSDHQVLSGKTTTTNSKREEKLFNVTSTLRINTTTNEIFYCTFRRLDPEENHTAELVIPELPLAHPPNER

COc1cc(-n2ncc3c(-c4cccc(-c5ccc(CN[C@H]6C[C@@H](O)C6)c(OC)n5)c4Cl)cccc32)ncc1CN[C@H](CO)C(=O)O [Example 120, ((6-(4-(2-chloro-3-(5-(((cis-3-hydroxycyclobutyl)amino)methyl)-6-methoxypyridin-2-yl)phenyl)-1H-indazol-1-yl)-4-methoxypyridin-3-yl)methyl)-D-serine]
IC50 [1]: < 1 nM | IC50 (PD-1/PD-L1 interaction): 201 to 2000 nM

COc1cc(-n2ncc3c(-c4cccc(-c5ccc(CN[C@H]6C[C@@H](O)C6)c(OC)n5)c4Cl)cccc32)cc(OC)c1CN[C@@H](CO)C(N)=O [Example 121, (S)-2-((4-(4-(2-chloro-3-(5-(((cis-3-hydroxycyclobutyl)amino)methyl)-6-methoxypyridin-2-yl)phenyl)-1H-indazol-1-yl)-2,6-dimethoxybenzyl)amino)-3-hydroxypropanamide]
IC50 [1]: < 1 nM | IC50 (PD-1/PD-L1 interaction): 201 to 2000 nM

COc1cc(-n2ncc3c(-c4cccc(-c5ccc(CN[C@H]6C[C@@H](O)C6)c(OC)n5)c4Cl)cccc32)ncc1CNC[C@@H](C)O [Example 122, cis-3-(((6-(2-chloro-3-(1-(5-((((R)-2-hydroxypropyl)amino)methyl)-4-methoxypyridin-2-yl)-1H-indazol-4-yl)phenyl)-2-methoxypyridin-3-yl)methyl)amino)cyclobutanol]
IC50 [1]: 1 to 10 nM | IC50 (PD-1/PD-L1 interaction): 201 to 2000 nM

COc1cc(-n2ncc3c(-c4cccc(-c5ccc(CNC[C@@H]6CCC(=O)N6)c(OC)n5)c4Cl)cccc32)cc(OC)c1CN[C@H](CO)C(=O)O [Example 123, (4-(4-(2-chloro-3-(6-methoxy-5-(((((S)-5-oxopyrrolidin-2-yl)methyl)amino)methyl)pyridin-2-yl)phenyl)-1H-indazol-1-yl)-2,6-dimethoxybenzyl)-D-serine]
IC50 [1]: < 1 nM | IC50 (PD-1/PD-L1 interaction): < 200 nM

COc1cc(-n2ncc3c(-c4cccc(-c5ccc(CN[C@H]6C[C@@H](O)C6)c(OC)n5)c4Cl)cccc32)ncc1CN1CC(C)(O)C1 [Example 124, 1-((6-(4-(2-chloro-(5-(((cis-3-hydroxycyclobutyl)amino)methyl)-6-methoxypyridin-2-yl)phenyl)-1H-indazol-1-yl)-4-methoxypyridin-3-yl)methyl)-3-methylazetidin-3-ol]
IC50 [1]: < 1 nM | IC50 (PD-1/PD-L1 interaction): 201 to 2000 nM

COc1cc(-n2ncc3c(-c4cccc(-c5ccc(CN[C@H]6C[C@@H](O)C6)c(OC)n5)c4Cl)cccc32)cc(OC)c1CNCCO [Example 125, cis-3-(((6-(2-chloro-3-(1-(4-(((2-hydroxyethyl)amino)methyl)-3,5-dimethoxyphenyl)-1H-indazol-4-yl)phenyl)-2-methoxypyridin-3-yl)methyl)amino)cyclobutanol]
IC50 [1]: < 1 nM | IC50 (PD-1/PD-L1 interaction): < 200 nM

COc1cc(-n2ncc3c(-c4cccc(-c5ccc(CN[C@H]6C[C@@H](O)C6)c(OC)n5)c4Cl)cccc32)cc(OC)c1CN[C@H](CO)C(=O)O [Example 126, (4-(4-(2-chloro-3-(5-(((cis-3-hydroxycyclobutyl)amino)methyl)-6-methoxypyridin-2-yl)phenyl)-1H-indazol-1-yl)-2,6-dimethoxybenzyl)-D-serine]
IC50 [1]: < 1 nM | IC50 (PD-1/PD-L1 interaction): < 200 nM

COc1cc(-n2ncc3c(-c4cccc(-c5ccc(CNC[C@@H](C)O)c(OC)n5)c4Cl)cccc32)cc(OC)c1CNC[C@@H](C)O [Example 127, (R)-1-(((6-(2-chloro-3-(1-(4-((((R)-2-hydroxypropyl)amino)methyl)-3,5-dimethoxyphenyl)-1H-indazol-4-yl)phenyl)-2-methoxypyridin-3-yl)methyl)amino)propan-2-ol]
IC50 [1]: < 1 nM | IC50 (PD-1/PD-L1 interaction): < 200 nM

COc1cc(-n2ncc3c(-c4cccc(-c5ccc(CN6CC7(CNC(=O)C7)C6)c(OC)n5)c4Cl)cccc32)cc(OC)c1CNCCO [Example 128, 2-((6-(2-chloro-3-(1-(4-(((2-hydroxyethyl)amino)methyl)-3,5-dimethoxyphenyl)-1H-indazol-4-yl)phenyl)-2-methoxypyridin-3-yl)methyl)-2,6-diazaspiro[3.4]octan-7-one]
IC50 [1]: < 1 nM | IC50 (PD-1/PD-L1 interaction): < 200 nM

COc1cc(-n2ncc3c(-c4cccc(-c5ccc(CNCCO)c(OC)n5)c4Cl)cccc32)cc(OC)c1CNCCO [Example 129, 2-(((6-(2-chloro-3-(1-(4-(((2-hydroxyethyl)amino)methyl)-3,5-dimethoxyphenyl)-1H-indazol-4-yl)phenyl)-2-methoxypyridin-3-yl)methyl)amino)ethanol]
IC50 [1]: < 1 nM | IC50 (PD-1/PD-L1 interaction): < 200 nM

COc1cc(-n2ncc3c(-c4cccc(-c5ccc(CN6CC[C@@H](C(=O)O)C6)c(OC)n5)c4Cl)cccc32)cc(OC)c1CN1CC2(CNC(=O)C2)C1 [Example 130, (R)-1-((6-(2-chloro-3-(1-(3,5-dimethoxy-4-((7-oxo-2,6-diazaspiro[3.4]octan-2-yl)methyl)phenyl)-1H-indazol-4-yl)phenyl)-2-methoxypyridin-3-yl)methyl)pyrrolidine-3-carboxylic acid]
IC50 [1]: < 1 nM | IC50 (PD-1/PD-L1 interaction): < 200 nM

COc1cc(-n2ncc3c(-c4cccc(-c5ccc(CN[C@H]6C[C@@H](O)C6)c(OC)n5)c4Cl)cccc32)cc(OC)c1CNCC1(C(N)=O)CC1 [Example 131, 1-(((4-(4-(2-chloro-3-(5-(((cis-3-hydroxycyclobutyl)amino)methyl)-6-methoxypyridin-2-yl)phenyl)-1H-indazol-1-yl)-2,6-dimethoxybenzyl)amino)methyl)cyclopropane-1-carboxamide]
IC50 [1]: 1 to 10 nM | IC50 (PD-1/PD-L1 interaction): 201 to 2000 nM

COc1cc(-n2ncc3c(-c4cccc(-c5ccc(CN6CC7(CNC(=O)C7)C6)c(OC)n5)c4Cl)cccc32)ncc1CNCCO [Example 132, 2-((6-(2-chloro-3-(1-(5-(((2-hydroxyethyl)amino)methyl)-4-methoxypyridin-2-yl)-1H-indazol-4-yl)phenyl)-2-methoxypyridin-3-yl)methyl)-2,6-diazaspiro[3.4]octan-7-one]
IC50 [1]: < 1 nM | IC50 (PD-1/PD-L1 interaction): < 200 nM

COc1cc(-n2ncc3c(-c4cccc(-c5ccc(CN6CC7(CNC(=O)C7)C6)c(OC)n5)c4Cl)cccc32)cc(OC)c1CN1CC[C@@H](O)C1 [Example 133, (R)-2-((6-(2-chloro-3-(1-(4-((3-hydroxypyrrolidin-1-yl)methyl)-3,5-dimethoxyphenyl)-1H-indazol-4-yl)phenyl)-2-methoxypyridin-3-yl)methyl)-2,6-diazaspiro[3.4]octan-7-one]
IC50 [1]: 1 to 10 nM | IC50 (PD-1/PD-L1 interaction): < 200 nM

COC(=O)[C@@H](CO)NCc1c(OC)cc(-n2ncc3c(-c4cccc(-c5ccc(CNC[C@@H]6CCC(=O)N6)c(OC)n5)c4Cl)cccc32)cc1OC [Example 134, methyl (4-(4-(2-chloro-3-(6-methoxy-5-(((((S)-5-oxopyrrolidin-2-yl)methyl)amino)methyl)pyridin-2-yl)phenyl)-1H-indazol-1-yl)-2,6-dimethoxybenzyl)-D-serinate]
IC50 [1]: < 1 nM | IC50 (PD-1/PD-L1 interaction): < 200 nM

COc1cc(-n2ncc3c(-c4cccc(-c5ccc(CN6CC7(CNC(=O)C7)C6)c(OC)n5)c4F)cccc32)cc(OC)c1CNC[C@@H]1CCC(=O)N1 [Example 135, (S)-2-((6-(2-fluoro-3-(1-(3,5-dimethoxy-4-((((5-oxopyrrolidin-2-yl)methyl)amino)methyl)phenyl)-1H-indazol-4-yl)phenyl)-2-methoxypyridin-3-yl)methyl)-2,6-diazaspiro[3.4]octan-7-one]
IC50 [1]: < 1 nM | IC50 (PD-1/PD-L1 interaction): < 200 nM
